# Results taken from patent publication US20250186541A1, “DLL3 TARGETING PEPTIDES AND CONSTRUCTS THEREOF” (MARIANA ONCOLOGY INC., priority 2023, published 2025).
# Numbered stars: 1 amine (or outer) side, 2 acyl side, 3 side chain; on linkers, the order of the positions; unused ones are H or OH. Bridge positions count the residues as written; N and C are the ends. Square brackets hold non-standard residues; d marks the D form. Triazole bridges read from a SMILES are 1,4-linked. Peptide text beside a SMILES is read from it. * marks the point of attachment. Ala(piperidin-4-yl) = O=C([C@H](CC1CCN([*:3])CC1)N[*:1])[*:2]; DOTA = O=C(O)CN1CCN(CC(=O)O)CCN(CC(=O)*)CCN(CC(=O)O)CC1; Phe(4-CH2NH2) = NCc1ccc(C[C@H](N)C(=O)O)cc1; Phe(4-F) = N[C@@H](Cc1ccc(F)cc1)C(=O)O; 1Nal = N[C@@H](Cc1cccc2ccccc12)C(=O)O; 2Nal = N[C@@H](Cc1ccc2ccccc2c1)C(=O)O; Aha = [N-]=[N+]=NCC[C@H](N)C(=O)O; Hyp = O=C(O)[C@@H]1C[C@@H](O)CN1; tBuAla = CC(C)(C)C[C@H](N)C(=O)O; 4Pal = N[C@@H](Cc1ccncc1)C(=O)O; AllylGly = C=CC[C@H](N)C(=O)O; Chg = N[C@H](C(=O)O)C1CCCCC1; αMeP = C[C@@]1(C(=O)O)CCCN1; NMeS = CN[C@@H](CO)C(=O)O; Pra = C#CC[C@H](N)C(=O)O; Ahx = NCCCCCC(=O)O
# Target: T1, human DLL3 (Homo sapiens, UniProt Q9NYJ7)
# T1 construct: biotin (biotinylated)
# T1 sequence (Q9NYJ7 27-618): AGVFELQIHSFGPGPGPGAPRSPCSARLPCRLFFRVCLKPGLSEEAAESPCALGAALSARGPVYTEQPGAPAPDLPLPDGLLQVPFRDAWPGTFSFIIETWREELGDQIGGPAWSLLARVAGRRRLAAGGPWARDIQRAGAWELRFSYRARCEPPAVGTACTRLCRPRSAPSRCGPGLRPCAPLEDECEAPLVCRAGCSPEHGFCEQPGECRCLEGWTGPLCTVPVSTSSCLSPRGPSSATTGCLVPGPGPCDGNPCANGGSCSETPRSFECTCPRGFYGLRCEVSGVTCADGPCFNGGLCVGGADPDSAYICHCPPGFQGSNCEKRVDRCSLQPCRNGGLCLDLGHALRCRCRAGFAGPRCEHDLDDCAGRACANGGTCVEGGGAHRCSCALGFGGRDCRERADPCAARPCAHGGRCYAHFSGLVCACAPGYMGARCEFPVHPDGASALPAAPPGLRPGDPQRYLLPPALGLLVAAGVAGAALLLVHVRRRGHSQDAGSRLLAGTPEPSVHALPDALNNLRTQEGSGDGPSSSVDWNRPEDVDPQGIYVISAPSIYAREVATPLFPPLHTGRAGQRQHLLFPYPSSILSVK
# Experiment: Affinity determination by Surface Plasmon Resonance (SPR), Biacore, 1:1 binding model
# Settings: biotinylated human DLL3 on streptavidin chip, 25° C.; NB = nonbinding
# Summary of the method: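 SPR with biotinylated human DLL3 captured on a streptavidin chip, with a reference surface subtracted. Samples were injected at several concentrations at 100 μL/min in phosphate buffer with 137 mM NaCl, 2.7 mM KCl, 0.05% P20 and 2% DMSO. Kinetic and affinity constants came from a 1:1 binding fit.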
row,Kd [nM],SMILES
1,1.05,"CC(=O)N[C@H](CO)C(=O)N[C@@H](CC(=O)O)C(=O)N[C@H]1CSSC[C@@H](C(=O)N2CCC[C@@]2(C)C(=O)N[C@@H](Cc2ccccc2)C(=O)N[C@@H](CC(=O)O)C(=O)N[C@H](CCCCNC(=O)CN2CCN(CC(=O)O)CCN(CC(=O)O)CCN(CC(=O)O)CC2)C(N)=O)NC(=O)[C@H](CC(N)=O)NC(=O)[C@H](Cc2c[nH]c3ccccc23)NC(=O)[C@H](CCC(N)=O)NC(=O)[C@H](C2CCCCC2)NC(=O)[C@H](Cc2cccc3ccccc23)NC1=O [compound 138, Ac-(D-Ser)-D-C(3)-(1Nal)-(Chg)-Q-W-N-C(3)-(aMe-P)-F-D-D-Lys(DOTA)-CONH2] (Ac-[dS]DC[1Nal][Chg]QWNC[αMeP]FD[dK](DOTA)-NH2; disulfide 3-9)"
2,> 100,"CSCC[C@H](NC(C)=O)C(=O)N[C@@H](CO)C(=O)N[C@@H](CC(=O)O)C(=O)N[C@H]1CSSC[C@@H](C(=O)N2CCC[C@H]2C(=O)N[C@@H](Cc2ccccc2)C(=O)N[C@@H](CC(=O)O)C(N)=O)NC(=O)[C@H](C)NC(=O)[C@H](Cc2c[nH]c3ccccc23)NC(=O)[C@H](CCC(N)=O)NC(=O)[C@H](CC(C)C)NC(=O)[C@H](Cc2c[nH]c3ccccc23)NC1=O [compound 26, Ac-M-S-D-C(3)-W-L-Q-W-(L-Ala)-C(3)-P-F-D-CONH2] (Ac-MSDCWLQWACPFD-NH2; disulfide 4-10)"
3,> 30,"CC(=O)N[C@H](C(=O)N[C@@H](CO)C(=O)N[C@@H](CC(=O)O)C(=O)N[C@H]1CSSC[C@@H](C(=O)N2CCC[C@@]2(C)C(=O)N[C@@H](Cc2ccncc2)C(=O)N[C@@H](CC(=O)O)C(=O)N[C@H](CCCCNC(=O)CN2CCN(CC(=O)O)CCN(CC(=O)O)CCN(CC(=O)O)CC2)C(N)=O)NC(=O)[C@H](CC(N)=O)NC(=O)[C@H](Cc2c[nH]c3ccccc23)NC(=O)[C@H](CCC(N)=O)NC(=O)[C@H](CC(C)C)NC(=O)[C@H](Cc2cccc3ccccc23)NC1=O)C1CCCCC1 [compound 137, Ac-(Chg)-S-D-C(3)-(1Nal)-L-Q-W-N-C(3)-(aMe-P)-(4Pya)-D-[D-Lys(DOTA)]-NH2] (Ac-[Chg]SDC[1Nal]LQWNC[αMeP][4Pal]D[dK](DOTA)-NH2; disulfide 4-10)"
4,26,"CSCC[C@H](NC(C)=O)C(=O)N[C@@H](CO)C(=O)N[C@@H](CC(=O)O)C(=O)N[C@H]1CSSC[C@@H](C(=O)N2C[C@H](O)C[C@H]2C(=O)N[C@@H](Cc2ccccc2)C(=O)N[C@@H](CC(=O)O)C(=O)N[C@H](CCCCNC(=O)CN2CCN(CC(=O)O)CCN(CC(=O)O)CCN(CC(=O)O)CC2)C(N)=O)NC(=O)[C@H](CC(N)=O)NC(=O)[C@H](Cc2c[nH]c3ccccc23)NC(=O)[C@H](CCC(N)=O)NC(=O)[C@H](CC(C)C)NC(=O)[C@H](Cc2c[nH]c3ccccc23)NC1=O [compound 44, Ac-M-S-D-C(3)-W-L-Q-W-N-C(3)-(trans4OH-P)-F-D-D-Lys(DOTA)-CONH2] (Ac-MSDCWLQWNC[Hyp]FD[dK](DOTA)-NH2; disulfide 4-10)"

# The remaining lines, values behind:
row,SMILES,Kd [nM]
1,"CC(=O)N[C@H](C)C(=O)N[C@@H](CO)C(=O)N[C@@H](CC(=O)O)C(=O)N[C@H]1C/C=C/C[C@@H](C(=O)N2CCC[C@@]2(C)C(=O)N[C@@H](Cc2ccccc2)C(=O)N[C@@H](CC(=O)O)C(N)=O)NC(=O)[C@H](CC(N)=O)NC(=O)[C@H](Cc2ccc3ccccc3c2)NC(=O)[C@H](Cc2ccc(CNC(=O)CN3CCN(CC(=O)O)CCN(CC(=O)O)CCN(CC(=O)O)CC3)cc2)NC(=O)[C@H](CC2CCNCC2)NC(=O)[C@H](Cc2cccc3ccccc23)NC1=O [compound 204, Ac-(D-Ala)-S-D-AllyG(4)-(1Nal)-[3-(4-piperidinyl)-Ala]-[PAF(DOTA)]-(2Nal)-N-AllyG(4)-(aMe-P)-F-D-CONH2] (Ac-[dA]SD[AllylGly][1Nal][Ala(piperidin-4-yl)][Phe(4-CH2NH2)](DOTA)[2Nal]N[AllylGly][αMeP]FD-NH2; staple (E) 4-10)",1.3
2,"CC(=O)N[C@H](C)C(=O)N[C@@H](CO)C(=O)N[C@@H](CC(=O)O)C(=O)N[C@H]1CSSC[C@@H](C(=O)N2CCC[C@@]2(C)C(=O)N[C@@H](Cc2ccccc2)C(=O)N[C@@H](CC(=O)O)C(=O)N[C@H](CCCCNC(=O)CN2CCN(CC(=O)O)CCN(CC(=O)O)CCN(CC(=O)O)CC2)C(N)=O)NC(=O)[C@H](CC(N)=O)NC(=O)[C@H](Cc2ccc3ccccc3c2)NC(=O)[C@H](C)NC(=O)[C@H](CC(C)(C)C)NC(=O)[C@H](Cc2cccc3ccccc23)NC1=O [compound 165, Ac-(D-Ala)-S-D-C(3)-(1Nal)-(t-Bu-Ala)-Ala-(2Nal)-N-C(3)-(aMe-P)-F-D-[D-Lys(DOTA)]-NH2] (Ac-[dA]SDC[1Nal][tBuAla]A[2Nal]NC[αMeP]FD[dK](DOTA)-NH2; disulfide 4-10)",0.094
3,"CC(=O)N[C@H](C(=O)N[C@@H](CO)C(=O)N[C@@H](CC(=O)O)C(=O)N[C@H]1CSSC[C@@H](C(=O)N2CCC[C@@]2(C)C(=O)N[C@@H](Cc2ccccc2)C(=O)N[C@@H](CC(=O)O)C(N)=O)NC(=O)[C@H](CC(N)=O)NC(=O)[C@H](Cc2ccc3ccccc3c2)NC(=O)[C@H](CCCCNC(=O)CN2CCN(CC(=O)O)CCN(CC(=O)O)CCN(CC(=O)O)CC2)NC(=O)[C@H](CC(C)(C)C)NC(=O)[C@H](Cc2cccc3ccccc23)NC1=O)C1CCCCC1 [compound 174, Ac-(Chg)-S-D-C(3)-(1Nal)-(t-Bu-Ala)-[L-Lys(DOTA)]-(2Nal)-N-C(3)-(aMe-P)-F -D-CONH2] (Ac-[Chg]SDC[1Nal][tBuAla]K(DOTA)[2Nal]NC[αMeP]FD-NH2; disulfide 4-10)",0.23
4,"CC(C)C[C@@H]1NC(=O)[C@H](Cc2c[nH]c3ccccc23)NC(=O)[C@@H](NC(=O)[C@H](CC(=O)O)NC(=O)[C@H](CO)NC(=O)CCCCCNC(=O)CN2CCN(CC(=O)O)CCN(CC(=O)O)CCN(CC(=O)O)CC2)CSSC[C@@H](C(=O)N2CCC[C@H]2C(=O)N[C@@H](Cc2ccc(F)cc2)C(=O)N[C@@H](CC(=O)O)C(N)=O)NC(=O)[C@H](CC(N)=O)NC(=O)[C@H](Cc2c[nH]c3ccccc23)NC(=O)[C@H](CCC(N)=O)NC1=O [compound 33, DOTA-Ahx-S-D-C(3)-W-L-Q-W-N-C(3)-P-(4Fluoro-F)-D-CONH2] ({DOTA-Ahx}-SDCWLQWNCP[Phe(4-F)]D-NH2; disulfide 3-9)",> 300
5,"CC(=O)N[C@H](C)C(=O)N[C@@H](CO)C(=O)N[C@@H](CC(=O)O)C(=O)N[C@H]1Cc2cn(nn2)CC[C@@H](C(=O)N2CCC[C@@]2(C)C(=O)N[C@@H](Cc2ccccc2)C(=O)N[C@@H](CC(=O)O)C(=O)N[C@H](CCCCNC(=O)CN2CCN(CC(=O)O)CCN(CC(=O)O)CCN(CC(=O)O)CC2)C(N)=O)NC(=O)[C@H](CC(N)=O)NC(=O)[C@H](Cc2ccc3ccccc3c2)NC(=O)[C@H](CCC(N)=O)NC(=O)[C@H](CC(C)(C)C)NC(=O)[C@H](Cc2cccc3ccccc23)NC1=O [Cpd #163, Ac-(D-Ala)-S-D-[Pra(5)]-(1Nal)-(t-Bu-Ala)-Q-(2Nal)-N-[DabN3(5)]-(aMe-P)-F -D-D-Lys(DOTA)-CONH2] (Ac-[dA]SD[Pra][1Nal][tBuAla]Q[2Nal]N[Aha][αMeP]FD[dK](DOTA)-NH2; triazole 4-10)",> 300
6,"CC(=O)N[C@H](C)C(=O)N(C)[C@@H](CO)C(=O)N[C@@H](CC(=O)O)C(=O)N[C@H]1CSSC[C@@H](C(=O)N2CCC[C@@]2(C)C(=O)N[C@@H](Cc2ccccc2)C(=O)N[C@@H](CC(=O)O)C(=O)N[C@H](CCCCNC(=O)CN2CCN(CC(=O)O)CCN(CC(=O)O)CCN(CC(=O)O)CC2)C(N)=O)NC(=O)[C@H](CC(N)=O)NC(=O)[C@H](Cc2ccc3ccccc3c2)NC(=O)[C@H](CCC(N)=O)NC(=O)[C@H](CC(C)(C)C)NC(=O)[C@H](Cc2cccc3ccccc23)NC1=O [compound 169, Ac-(D-Ala)-(NMe-Ser)-D-C(3)-(1Nal)-(t-Bu-Ala)-Q-(2Nal)-N-C(3)-(aMe-P)-F-D-[D-Lys(DOTA)]-NH2] (Ac-[dA][NMeS]DC[1Nal][tBuAla]Q[2Nal]NC[αMeP]FD[dK](DOTA)-NH2; disulfide 4-10)",0.057
7,"CC(=O)N[C@H](C(=O)N[C@@H](CO)C(=O)N[C@@H](CC(=O)O)C(=O)N[C@H]1CSSC[C@@H](C(=O)N2CCC[C@@]2(C)C(=O)N[C@@H](Cc2ccccc2)C(=O)N[C@@H](CC(=O)O)C(=O)N[C@H](CCCCNC(=O)CN2CCN(CC(=O)O)CCN(CC(=O)O)CCN(CC(=O)O)CC2)C(N)=O)NC(=O)[C@H](CC(N)=O)NC(=O)[C@H](Cc2ccc3ccccc3c2)NC(=O)[C@H](CCC(N)=O)NC(=O)[C@H](CC(C)(C)C)NC(=O)[C@H](Cc2cccc3ccccc23)NC1=O)C1CCCCC1 [compound 148, Ac-(Chg)-S-D-C(3)-(1Nal)-(t-Bu-Ala)-Q-(2Nal)-N-C(3)-(aMe-P)-F -D-D-Lys(DOTA)-CONH2] (Ac-[Chg]SDC[1Nal][tBuAla]Q[2Nal]NC[αMeP]FD[dK](DOTA)-NH2; disulfide 4-10)",0.29
8,"CC(=O)N[C@H](C(=O)N[C@@H](CO)C(=O)N[C@@H](CC(=O)O)C(=O)N[C@H]1CSSC[C@@H](C(=O)N2CCC[C@@]2(C)C(=O)N[C@@H](Cc2ccccc2)C(=O)N[C@@H](CC(=O)O)C(=O)N[C@H](CCCCNC(=O)CN2CCN(CC(=O)O)CCN(CC(=O)O)CCN(CC(=O)O)CC2)C(N)=O)NC(=O)[C@H](CC(N)=O)NC(=O)[C@H](Cc2ccc3ccccc3c2)NC(=O)[C@H](CCC(N)=O)NC(=O)[C@H](CC(C)C)NC(=O)[C@H](Cc2cccc3ccccc23)NC1=O)C1CCCCC1 [compound 124, Ac-(Chg)-S-D-C(3)-(1Nal)-L-Q-(2Nal)-N-C(3)-(aMe-P)-F-D-D-Lys(DOTA)-CONH2] (Ac-[Chg]SDC[1Nal]LQ[2Nal]NC[αMeP]FD[dK](DOTA)-NH2; disulfide 4-10)",0.15
